Test results from patent US20080051463A1, “ANTHRACENE COMPOUNDS AND THEIR USE FOR TREATING BENIGN AND MALIGNANT TUMOR DISORDERS” (AETERNA ZENTARIS GmbH, priority 2006, published 2008).
In brackets after ≈: the same amount, converted by molar mass. Several values for one entry are separate records, joined by “and”; a condition that tells them apart may be missing. Equal entries are not always repeated.

Key:
[1] = system: human cervical carcinoma cell line KB/HeLa; experiment: Proliferation test (cellular dehydrogenase activity), KB/HeLa; assay type: cell-based
Excerpt: (§1) The antiproliferative activity of the compounds 1, 2, 4, 6, 7, 9, 10, 11, 12 and 13 according to the invention was investigated in a proliferation test performed on established tumor cell lines (D. A. Scuderio et al. Cancer Res. 1988, 48: 4827-4833).
(§2) The test used determines the cellular dehydrogenase activity and makes it possible to determine cell viability and determine cell number indirectly.
(§3) The cell lines used are the human cervical carcinoma cell line KB/HeLa (ATCC CCL17), the ovarian adenocarcinoma cell line SKOV-3 (ATCC HTB77), the human glioblastoma cell line SF-268 (NCI-503138) and the lung carcinoma cell line NCI-H460 (NCI-503473). In addition, an RKOp27 cell system was used for investigating the cell cycle-specific effect of the substance (M. Schmidt et al. Oncogene 2000, 19(20): 2423-9).

murine P388 cell line = experiment: XTT antiproliferative test, P388; assay type: cell-based; settings: P388 wild type; for IC50: Mus musculus, P388, XTT; for P388 IC50: XTT
Excerpt: (§4) For further characterization, the compounds 6 and 7 according to the invention were investigated with regard to multidrug-resistant (MDR) cell lines as compared with the nonresistant wild-type cell lines.
(§5) The murine P388 cell line (methylcholanthrene-induced lymphoid neoplasm) [R. Supino et al.; Inst. Nazionale per lo Studio e las cura die Tumori; Milan)] and the doxorubicin-resistant P388 cell line (NSC-123127) were also included as test systems.

bovine tubulin = experiment: Inhibition of the polymerization of bovine tubulin (in vitro); assay type: biochemical; settings: for Inhibition at 10 μg/ml [%]: tubulin with 30% associated proteins (MAPs), repeat values; for EC50 of polymerization inhibition of tubulin: bovine tubulin with 30% associated proteins (MAPs)
Excerpt: In this test, tubulin purified by polymerization and depolymerization cycles is used, which is polymerized by addition of GTP and heating.
Table 1 states the %-inhibition values and Table 2 states the EC50 values of polymerization inhibition of tubulin with 30% associated proteins (MAPs).

murine cell line L1210 = experiment: XTT antiproliferative test, L1210; assay type: cell-based; settings: L1210 wild type; for IC50: Mus musculus, L1210, XTT; for L1210 IC50: XTT
Excerpt: as §4
(§6) The cell lines which were investigated are the murine cell line L1210 (ATCC CCL219), the acute myeloid leukaemia cell line LT12 (De Vries et al.; University Rotterdam) and the resistant lines L1210/VCR (Asta Medica Laboratory) and LT12/mdr (De Vries et al.; University Rotterdam).

[2] = system: lung carcinoma cell line NCI-H460; experiment: Proliferation test (cellular dehydrogenase activity), NCI-H460; assay type: cell-based; settings: Homo sapiens
Excerpt: as §1, §2, §3

[3] = system: RKOp27 human colon carcinoma cells, p27kiP1 induced; experiment: Proliferation test, RKOp27 cell system with induced p27kiP1 expression; assay type: cell-based; settings: RKOp27 with induced expression of p27kiP1, read-out: RKOP27ind EC50
Excerpt: as §1, §2, §3
(§7) RKO is a human colon carcinoma line in which expression of the cell cycle inhibitor p27^kiP1 can be induced using the ecdysone expression system and lead to cell cycle arrest specifically in […].
(§8) By contrast, cell cycle-specific substances, such as, for example, tubulin inhibitors, are only cytotoxic when cells are not arrested and the cell cycle is passed through.

[4] = system: acute myeloid leukaemia cell line LT12; experiment: XTT antiproliferative test, LT12; assay type: cell-based; settings: LT12 wild type; for IC50: Rattus norvegicus, LT12, XTT; for LT12 IC50: XTT
Excerpt: as §4, §6

[5] = system: doxorubicin-resistant P388 cell line; experiment: XTT antiproliferative test, doxorubicin-resistant P388; assay type: cell-based, murine; settings: for IC50: Mus musculus, P388, XTT, read-out: P388ADR IC50; for P388ADR IC50: XTT
Excerpt: as §4, §5

[6] = system: RKOp27 human colon carcinoma cells; experiment: Proliferation test, RKOp27 cell system without p27kiP1 expression; assay type: cell-based; settings: RKOp27 without expression of p27kiP1
Excerpt: as §1, §2, §3, §7, §8

[7] = system: ovarian adenocarcinoma cell line SKOV-3; experiment: Proliferation test (cellular dehydrogenase activity), SK-OV-3; assay type: cell-based; settings: Homo sapiens
Excerpt: as §1, §2, §3

resistant line L1210/VCR = experiment: XTT antiproliferative test, L1210/VCR; assay type: cell-based, murine
Excerpt: as §4, §6

porcine brain tubulin = system: T1, porcine brain tubulin; experiment: Inhibition of the polymerization of porcine brain tubulin (turbidimetric); assay type: biochemical; settings: porcine brain tubulin with about 15% MAPs, GTP, 37° C.
T1 construct: In addition to tubulin, the protein used comprises about 15% of associated proteins (MAPs)
Experimental: b) In an in vitro test, the compounds 1, 2, 4 and 7 were tested for inhibition of the polymerization of porcine brain tubulin. In this test, tubulin purified by polymerization and depolymerization cycles is used (Shelanski et al. Proc. Natl. Acad. Sci. U.S.A. 1973, 70, 765-768 modified according to Vater et al. Acta Histochem. Suppl. 1986, 33, 123-129), which is polymerized by addition of GTP and heating to 37° C. In addition to tubulin, the protein used comprises about 15% of associated proteins (MAPs). The measurement values were determined turbidimetrically according to Gaskin et al. J. Mol. Biol. 89 (1974) 737-755.
Table 3 states the EC50 value of the polymerization inhibition.

[8] = system: human glioblastoma cell line SF-268; experiment: Proliferation test (cellular dehydrogenase activity), SF-268; assay type: cell-based
Excerpt: as §1, §2, §3

resistant line LT12/mdr = experiment: XTT antiproliferative test, LT12/mdr; assay type: cell-based
Excerpt: as §4, §6

EC50 [1] | EC50 [2] | EC50 [3] | melting point | EC50 [6] | EC50 [7] | EC50 of polymerization inhibition of tubulin (bovine tubulin) | EC50 [8] | SMILES | Inhibition at 10 μg/ml [%] (bovine tubulin) | other results
 |  |  | 128 °C |  |  |  |  | O=C(C=C1c2ccccc2C(=O)c2ccccc21)c1ccccc1 [Compound 18, 10-(2-oxo-2-phenyl-ethylidene)-10H-anthracen-9-one] | 54.9% and 69.9% and 79.8% and 71.0% | 
1.4 µg/mL (≈ 4.29 µM) | 0.61 µg/mL (≈ 1.87 µM) | > 3.16 µg/mL | 185 °C | 0.63 µg/mL (≈ 1.93 µM) | 3.03 µg/mL (≈ 9.28 µM) |  | 2.22 µg/mL (≈ 6.8 µM) | O=C(C=C1c2ccccc2C(=O)c2ccccc21)c1cccc(O)c1 [Compound 12, 10-[2-(3-hydroxy-phenyl)-2-oxo-ethylidene]-10H-anthracen-9-one] | 83.1% and 95.0% and 92.7% and 86.9% | 
2.65 µg/mL (≈ 8.12 µM) | 1.34 µg/mL (≈ 4.11 µM) | > 3.16 µg/mL | 211 to 212 °C | 1.38 µg/mL (≈ 4.23 µM) |  | 4.87 µg/mL |  | O=C(C=C1c2ccccc2C(=O)c2ccccc21)c1ccc(O)cc1 [Compound 10, 10-[2-(4-hydroxy-phenyl)-2-oxo-ethylidene]-10H-anthracen-9-one] | 85.0% and 94.8% and 98.4% and 98.6% | 

Further lines, the molecule ahead of its results:

SMILES | EC50 [1] | EC50 [2] | EC50 [3] | melting point | EC50 [6] | EC50 [7] | EC50 of polymerization inhibition of tubulin (bovine tubulin) | EC50 [8] | Inhibition at 10 μg/ml [%] (bovine tubulin) | other results
COc1ccc(C(=O)C=C2c3ccccc3C(=O)c3ccccc32)cc1OC [Compound 6, 10-[2-(3,4-dimethoxy-phenyl)-2-oxo-ethylidene]-9(10H)-anthracenone] | 0.458 µg/mL (≈ 1.24 µM) | 0.29 µg/mL (≈ 0.783 µM) | > 3.16 µg/mL | 160 °C | 0.24 µg/mL (≈ 0.648 µM) |  |  |  | 68.9% and 86.1% and 99.0% | IC50 (murine P388 cell line): 0.35 µg/mL (≈ 0.945 µM); P388 IC50 (murine P388 cell line): 0.39 µg/mL; IC50 (murine cell line L1210): 0.32 µg/mL (≈ 0.864 µM); L1210 IC50 (murine cell line L1210): 0.35 µg/mL; IC50 [4]: 0.1 µg/mL (≈ 0.27 µM); LT12 IC50 [4]: 0.17 µg/mL; IC50 [5]: 0.25 µg/mL (≈ 0.675 µM); P388ADR IC50 [5]: 0.49 µg/mL
COc1ccc(C(=O)C=C2c3ccccc3C(=O)c3ccccc32)cc1 [Compound 7, 10-[2-(4-methoxy-phenyl)-2-oxo-ethylidene]-10H-anthracen-9-one] | 0.02 µg/mL (≈ 0.0588 µM) | 0.025 µg/mL (≈ 0.0734 µM) | > 3.16 µg/mL | 120 to 122 °C | 0.027 µg/mL (≈ 0.0793 µM) | 0.02 µg/mL (≈ 0.0588 µM) | 1.38 µg/mL and 1.50 µg/mL | 0.02 µg/mL (≈ 0.0588 µM) | 99.1% and 100.0% | IC50 (resistant line L1210/VCR; Mus musculus, L1210, XTT, read-out: L1210VCR IC50): 0.017 µg/mL (≈ 0.0499 µM); L1210VCR IC50 (resistant line L1210/VCR; XTT): 0.018 µg/mL; IC50 (murine P388 cell line): 0.014 µg/mL (≈ 0.0411 µM); P388 IC50 (murine P388 cell line): 0.015 µg/mL; EC50 of the polymerization inhibition (porcine brain tubulin): 0.5 µg/mL; IC50 (murine cell line L1210): 0.016 µg/mL (≈ 0.047 µM); L1210 IC50 (murine cell line L1210): 0.017 µg/mL; IC50 [4]: 0.015 µg/mL (≈ 0.0441 µM); LT12 IC50 [4]: 0.019 µg/mL; IC50 [5]: 0.016 µg/mL (≈ 0.047 µM); P388ADR IC50 [5]: 0.018 µg/mL; IC50 (resistant line LT12/mdr; Rattus norvegicus, LT12, XTT, read-out: LT12mdr IC50): 0.015 µg/mL (≈ 0.0441 µM); LT12mdr IC50 (resistant line LT12/mdr; XTT): 0.020 µg/mL
O=C1c2ccccc2C(=CC(=O)N2CCSCC2)c2ccccc21 [Compound 3, 10-(2-oxo-2-thiomorpholin-4-ylethylidene)-10H-anthracen-9-one] |  |  |  | 177 to 178 °C |  |  |  |  |  | 
COC(=O)C=C1c2ccccc2C(=O)c2ccccc21 [Compound 15, (10-oxo-10H-anthracen-9-ylidene)-acetic acid methyl ester] |  |  |  | 113 °C |  |  |  |  |  | 
Cc1ccc(C(=O)C=C2c3ccccc3C(=O)c3ccccc32)cc1 [Compound 9, 10-(2-oxo-2-p-tolyl-ethylidene)-10H-anthracen-9-one] | 0.2 µg/mL (≈ 0.617 µM) | 0.11 µg/mL (≈ 0.339 µM) | > 3.16 µg/mL | 129 °C | 0.09 µg/mL (≈ 0.277 µM) | 0.13 µg/mL (≈ 0.401 µM) | 0.49 µg/mL | 0.2 µg/mL (≈ 0.617 µM) | 98.3% and 99.8% and 100.0% | 
